Measured values reported in patent publication US20250129140A1, “ANTI-HCMV ANTIBODIES AND ANTIGEN-BINDING FRAGMENTS THEREOF” (ICAHN SCHOOL OF MEDICINE AT MOUNT SINAI, priority 2021, published 2025).

System: CMV TB40/E infected fibroblasts
Experiment: SCID mouse gelfoam implant model of CMV proliferation
Assay type: in vivo, SCID mice
Settings: fully human mAbs 4 or 18 mg/kg, ganciclovir 50 mg/kg; i.p. every three days; day ten; versus isotype control
Procedure: At day ten post-implantation, the cells were released from the gelfoam and DNA extracted from the cells was subjected to qPCR for the HCMV UL123 and β-actin genes. The relative CMV levels cells were determined from Ct values of qPCR analysis (in triplicate) from cells collected from three mice/treatment. Statistical tests were performed using ordinary one-way ANOVA with comparisons to isotype treated cells as a control and a Dunnett's post-test; **, p<0.01; ***, p<0.001; ****, p<0.0001.
The gelfoam was implanted subcutaneously in three mice per group. […] Treatments were administrated every three days for nine days. At day ten post-implant, the gelfoam was removed and cells were released from the gel foam by collagenase treatment. The total DNA was harvest from the cells, quantified, and subjected to qPCR for UL123 (CMV gene) and b-actin (housekeeping geen) using SYBR green to evaluate virus proliferation. The qPCR analysis was performed in triplicate from three animals to determine the Ct values for UL123 and b-actin to calculate the relative levels of CMV DNA from the gelfoam samples.

Nc1nc(O)c2ncn(COC(CO)CO)c2n1 [ganciclovir, reference compound]
CMV DNA levels (UL123 relative to β-actin, qPCR): effective at decreasing CMV DNA levels
